Columns and labels:
Format in all cases: in vivo
paddy grains = experiment: Analysis of micronutrient absorption levels in paddy grains by ICP; settings: paddy grain powder, acid digest
Procedure: Analysis of Micronutrients in Paddy Samples by ICP (Inductive Coupled Plasma) Equipment.
The method include the steps of:— • 1. 1 gm of grain powder was added to 60 ml of perchloric acid and Nitric acid (9:1) and were digested overnight. • 2. Heat the mixtures at 100 c for 2 hours until vapors change from red to white color. • 3. The resultant solution was filtered through a Whatman paper and makeup to 100 ml with 1% nitric acid. • 4. The solution was tested for micronutrients by ICP.

plants [1] = experiment: Total polyphenol content (Folin-Ciocalteu, absorbance at 765 nm); settings: 1 g test sample, 70% methanol extract
Procedure: Total polyphenol content were estimated by performing the following steps:— • 10-15 ml of 70% MeOH (70 ml methanol: 30 ml water) were added to 1 g of test sample • Filter through whatman filter paper 1 and was made up to 25 ml with 70% methanol. • 5 ml of folin ciocalteu's phenol reagent were added. • Incubation for 5 mins. • 4 ml of 7.5% Na2CO3 were added and incubated for 1 hr. • absorbance was measured at 765 nm.

plants [2] = experiment: Total protein content (Lowry method, absorbance at 660 nm); settings: 1 g of sample in 25 ml
Procedure: Total protein content in the sample content were estimated by performing Lowry method which include the following steps:— • 1 g of samples in 25 ml were filtered through whatman filter paper 1 • 4.5 ml of a reagent comprising NaOH, sodium potassium tartrate, and CuSO4.5H2O were added and incubated for 10 mins. • After incubation, 0.5 ml of Folin-Ciocalteu's phenol reagent were added and incubated for 30 mins. • Absorbance was measured with UV Vis Spectrophotometer At 660 nm and a standard graph was plotted.

SMILES: COc1ccc2[nH]cc(CCNC(C)=O)c2c1 [Melatonin, N-Acetyl-5-methoxytryptamine]
- Al (paddy grains): 241.3 ppm
- B (paddy grains): 40.5 ppm
- Ca (paddy grains): 405.7 ppm
- Co (paddy grains): 15.4 ppm
- Fe (paddy grains): 257.9 ppm
- Mg (paddy grains): 697.2 ppm
- Mn (paddy grains): 42.5 ppm
- Zn (paddy grains): 29.1 ppm
- Total Phenol content in ppm (plants [1]): 18.6 ppm
- Total Protein content in % (plants [2]): 0.076%

From patent US20240156094A1, “MELATONIN COMPOSITION WITH METALS AND A METHOD FOR ENHANCING ENZYMATIC REACTIONS AND METABOLIC PATHWAYS IN PLANTS” (FERTIS INDIA PVT. LTD., priority 2021, published 2024)
